Assay results as given in patent US11932609B1 (priority 2023, dated 2024).
One block for each compound: values may come before it.

SMILES: CCOC(=O)C1=C(C)NC(Nc2ccccc2)=NC1c1ccc(F)cc1 (centres unmarked) [DHPM-KNV1, Ethyl 4-(4-fluorophenyl)-6-methyl-2-(phenylamino)-1,4-dihydropyrimidine-5-carboxylate]
- melting point: 92 to 93 °C

SMILES: CCOC(=O)C1=C(C)NC(Nc2ccc(C(C)C)cc2)=NC1c1ccc(F)cc1 (centres unmarked) [DHPM-KNV4, Ethyl 4-(4-fluorophenyl)-2-((4-isopropylphenyl)amino)-6-methyl-1,4-dihydropyrimidine-5-carboxylate]
- melting point: 125 to 126 °C

SMILES: CCOC(=O)C1=C(C)NC(Nc2ccc(Cl)cc2)=NC1c1ccc(F)cc1 (centres unmarked) [DHPM-KNV3, Ethyl 2-((4-chlorophenyl)amino)-4-(4-fluorophenyl)-6-methyl-1,4-dihydropyrimidine-5-carboxylate]
- melting point: 188 to 189 °C

SMILES: CCOC(=O)C1=C(C)NC(Nc2ccccc2I)=NC1c1ccc(F)cc1 (centres unmarked) [DHPM-KNV8, Ethyl 4-(4-fluorophenyl)-2-((2-iodophenyl)amino)-6-methyl-1,4-dihydropyrimidine-5-carboxylate]
- melting point: 229 to 230 °C

SMILES: CCOC(=O)C1=C(C)NC(Nc2ccc(C(F)(F)F)cc2OC)=NC1c1ccc(F)cc1 (centres unmarked) [DHPM-KNV9, Ethyl 4-(4-fluorophenyl)-2-((2-methoxy-4-(trifluoromethyl)phenyl)amino)-6-methyl-1,4-dihydropyrimidine-5-carboxylate]
- melting point: 213 to 214 °C

The next lines start with the values.

- melting point: 176 to 177 °C
SMILES: CCOC(=O)C1=C(C)NC(Nc2ccc(Cl)c(C(F)(F)F)c2)=NC1c1ccc(F)cc1 (centres unmarked) [DHPM-KNV5, Ethyl 2-((4-chloro-3-(trifluoromethyl)phenyl)amino)-4-(4-fluorophenyl)-6-methyl-1,4-dihydropyrimidine-5-carboxylate]

- melting point: 175 to 176 °C
SMILES: CCOC(=O)C1=C(C)NC(Nc2ccc3ncsc3c2)=NC1c1ccc(F)cc1 (centres unmarked) [DHPM-KNV7, Ethyl 2-(benzo[d]thiazol-6-ylamino)-4-(4-fluorophenyl)-6-methyl-1,4-dihydropyrimidine-5-carboxylate]

- melting point: 120 to 121 °C
SMILES: CCOC(=O)C1=C(C)NC(Nc2ccc(Br)cc2)=NC1c1ccc(F)cc1 (centres unmarked) [DHPM-KNV2, Ethyl 2-((4-bromophenyl)amino)-4-(4-fluorophenyl)-6-methyl-1,4-dihydropyrimidine-5-carboxylate]
